This passage reports Ki and EC50 results from ChEMBL document CHEMBL5365550, “Targeting the Inhibition of B-Cell Lymphoma 2 Protein for the Treatment of Cancer” (ACS Med Chem Lett, 2023).

Where only a bound is given, the exact number is not on record here.

The target in one assay is Bcl-2-like protein 1 (Homo sapiens, UniProt Q07817). The assay can be described thus: Inhibition of human Bcl-xL expressed in Escherichia coli BL21(DE3) T1R cells preincubated under shaking condition for 1 min and measured after 3 hrs by TR-FRET assay.
The test system of the next assay is RS4-11. The assay is described as follows: Cytotoxicity against human RS4-11 cells assessed as reduction in cell viability by CellTiter-Glo assay. Type of assay: functional, cell-based.
Another assay has as its system MOLT-4. The assay can be described thus: Cytotoxicity against human MOLT-4 cells assessed as reduction in cell viability by CellTiter-Glo assay. Type of assay: functional, cell-based. (In ATP-based viability assays light output follows the ATP content of the culture.)
For assay [1], the target named is Apoptosis regulator Bcl-2 (Homo sapiens, UniProt P10415). The assay is described as follows: Inhibition of human Bcl-2 expressed in Escherichia coli BL21(DE3) T1R cells preincubated under shaking condition for 1 min and measured after 3 hrs by TR-FRET assay. In general terms: TR-FRET usually uses a lanthanide donor and a delayed reading to cut background.
Sequence of Apoptosis regulator Bcl-2 (P10415 whole entry): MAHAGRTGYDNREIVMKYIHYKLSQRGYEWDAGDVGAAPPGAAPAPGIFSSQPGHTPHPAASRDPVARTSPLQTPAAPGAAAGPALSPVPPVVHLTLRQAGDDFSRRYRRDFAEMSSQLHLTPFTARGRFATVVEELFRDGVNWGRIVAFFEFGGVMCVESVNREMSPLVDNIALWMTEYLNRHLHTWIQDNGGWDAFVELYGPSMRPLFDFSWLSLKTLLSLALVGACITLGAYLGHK

Sequence of Bcl-2-like protein 1 (Q07817 whole entry): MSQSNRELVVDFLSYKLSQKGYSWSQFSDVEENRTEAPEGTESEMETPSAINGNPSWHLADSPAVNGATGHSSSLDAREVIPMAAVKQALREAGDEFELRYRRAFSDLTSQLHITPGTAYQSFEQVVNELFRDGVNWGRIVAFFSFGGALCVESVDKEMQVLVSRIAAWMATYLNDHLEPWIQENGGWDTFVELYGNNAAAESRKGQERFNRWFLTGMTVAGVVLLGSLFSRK

Turning to `COC1(CNc2ccc(S(=O)(=O)NC(=O)c3ccc(N4CCN5CC6=C(c7ccc(Cl)cc7)CC(C)(C)C[C@H]6OCCCOC[C@@H]5C4)cc3N3CCCOc4nc5[nH]ccc5cc43)cc2[N+](=O)[O-])CCOCC1`, the Ki at Bcl-2-like protein 1 was 40.3 nM; in assay [1], 2.09 nM. The figures for the EC50 in the assay on RS4-11 and in the assay on MOLT-4 were 4.38 nM and above 10000 nM, respectively.

Take `COCC1(F)CC(CNc2ccc(S(=O)(=O)NC(=O)c3ccc(N4CCN5CC6=C(c7ccc(Cl)cc7)CC(C)(C)C[C@H]6OCCCOC[C@@H]5C4)cc3N3CCCOc4nc5[nH]ccc5cc43)cc2[N+](=O)[O-])C1` (stereo partly drawn): the results for the Ki (at Bcl-2-like protein 1; in assay [1]) were 25.8 nM and 0.28 nM, respectively. In addition, the EC50 in the assay on RS4-11 was 10.9 nM; in the assay with MOLT-4, above 10000 nM.

With `CC1(C)CC(c2ccc(Cl)cc2)=C2CN3CCN(c4ccc(C(=O)NS(=O)(=O)c5ccc(NC[C@H]6CC[C@](C)(O)CO6)c([N+](=O)[O-])c5)c(N5CCCOc6nc7[nH]ccc7cc65)c4)C[C@H]3COCCCO[C@@H]2C1`, the Ki on Bcl-2-like protein 1 worked out at 9.3 nM; in assay [1], 0.049 nM. Moreover, the concentration giving a half-maximal response (EC50) in the assay on RS4-11 was determined as 0.651 nM; in the assay with MOLT-4, 1220 nM.

Consider `CC1(C)CC(c2ccc(Cl)cc2)=C2CN3CCN(c4ccc(C(=O)NS(=O)(=O)c5ccc(NC[C@H]6CC[C@H](O)CO6)c([N+](=O)[O-])c5)c(N5CCCOc6nc7[nH]ccc7cc65)c4)C[C@H]3COCCCO[C@@H]2C1`, for which the concentration giving a half-maximal response (EC50) with RS4-11 turned out to be 0.966 nM; in the assay with MOLT-4 it was 823 nM.

As to `CC1(C)CC(c2ccc(Cl)cc2)=C2CN3CCN(c4ccc(C(=O)NS(=O)(=O)c5ccc(NC[C@H]6COCCO6)c([N+](=O)[O-])c5)c(N5CCCOc6nc7[nH]ccc7cc65)c4)C[C@H]3COCCCO[C@@H]2C1`, the Ki on Bcl-2-like protein 1 was found to be 5.76 nM; in assay [1], 0.034 nM. Also, the EC50 in the assay on RS4-11 came to 1.36 nM; in the assay on MOLT-4, 1410 nM.

In the case of `CC1(C)CC(c2ccc(Cl)cc2)=C2CN3CCN(c4ccc(C(=O)NS(=O)(=O)c5ccc(NCC6(O)CCOCC6)c([N+](=O)[O-])c5)c(N5CCCOc6nc7[nH]ccc7cc65)c4)C[C@H]3COCCCO[C@@H]2C1`, the Ki on Bcl-2-like protein 1 came out at 8.31 nM; in assay [1] it was 0.223 nM. In addition, the figures for the 50% effective concentration (EC50) in the assay on RS4-11 and with MOLT-4 were 1.43 nM and 426 nM, respectively.

On to `CC1(C)CC(c2ccc(Cl)cc2)=C2CN3CCN(c4ccc(C(=O)NS(=O)(=O)c5ccc(NC[C@H]6CC[C@@](C)(O)CC6)c([N+](=O)[O-])c5)c(N5CCCOc6nc7[nH]ccc7cc65)c4)C[C@H]3COCCCO[C@@H]2C1`, for which the inhibition constant (Ki) on Bcl-2-like protein 1 came to 11.1 nM; in assay [1] it was 0.061 nM. For the same molecule, the results for the EC50 in the assay on RS4-11 and in the assay with MOLT-4 were 1.47 nM and 117 nM, respectively.

Take `CO[C@H]1C[C@H](Nc2ccc(S(=O)(=O)NC(=O)c3ccc(N4CCN5CC6=C(c7ccc(Cl)cc7)CC(C)(C)C[C@H]6OCCCOC[C@@H]5C4)cc3N3CCCOc4nc5[nH]ccc5cc43)cc2[N+](=O)[O-])C1`: the Ki at Bcl-2-like protein 1 was determined as 39 nM; in assay [1] it was 2.58 nM. Also, the EC50 is 4.1 nM in the assay on RS4-11 and above 10000 nM in the assay with MOLT-4.

For `CC1(C)CC(c2ccc(Cl)cc2)=C2CN3CCN(c4ccc(C(=O)NS(=O)(=O)c5ccc(NC[C@H]6CC[C@](C)(O)CC6)c(Cl)c5)c(N5CCCOc6nc7[nH]ccc7cc65)c4)C[C@H]3COCCCO[C@@H]2C1`, the figures for the Ki (on Bcl-2-like protein 1; in assay [1]) were 29.7 nM and 0.085 nM, respectively. The figures for the half-maximal effective concentration (EC50) in the assay with RS4-11 and in the assay with MOLT-4 were 17.7 nM and above 10000 nM, respectively.

On to `CO[C@H]1CC[C@H](CNc2ccc(S(=O)(=O)NC(=O)c3ccc(N4CCN5CC6=C(c7ccc(Cl)cc7)CC(C)(C)C[C@H]6OCCCOC[C@@H]5C4)cc3N3CCCOc4nc5[nH]ccc5cc43)cc2[N+](=O)[O-])OC1`, for which the EC50 in the assay with MOLT-4 worked out at 1700 nM.

The molecule `CC1(C)CC(c2ccc(Cl)cc2)=C2CN3CCN(c4ccc(C(=O)NS(=O)(=O)c5cnc(OCC6(F)CCOCC6)c(Cl)c5)c(N5CCCOc6nc7[nH]ccc7cc65)c4)C[C@H]3COCCCO[C@@H]2C1` displayed a Ki at Bcl-2-like protein 1 above 661 nM. Also, the EC50 in the assay on RS4-11 was 5.46 nM; in the assay with MOLT-4 it was above 10000 nM.

By Ki is commonly meant a dissociation constant, usually derived from enzyme kinetics or from competition with a known ligand. The low end stands for a stronger hold on the target, the high end for a looser hold on the target. The term EC50 denotes the concentration giving half of the maximal effect.
